# Source: US9150632B2 (Indiana University Research and Technology Corporation, priority 2009, dated 2015)
# Where two headings read alike, the source gives them in different places. Non-standard residues stand in square brackets, D forms with d. Residues, ends and D or L forms follow the SMILES beside them. No end group written: not given here. *: point of attachment. Palmitoyl = CCCCCCCCCCCCCCCC(=O)*; Myristoyl = CCCCCCCCCCCCCC(=O)*; Aib = CC(C)(N)C(=O)O
# Experiments:
# [1] = target: T1, glucagon receptor (Homo sapiens, UniProt P47871); assay: Functional assay-cAMP synthesis, luciferase reporter in HEK293 cells, glucagon receptor; type: cell-based; details: for % Relative activity at the Receptor for Glucagon: relative to the native hormone; for Glucagon Receptor % relative activity: activity relative to the native hormone at the indicated receptor; for EC50: cAMP induction, in vitro, as in Example 14
# T1 construct: expressed in transfected cells; host or cells: HEK293
# T1 sequence (P47871 26-477): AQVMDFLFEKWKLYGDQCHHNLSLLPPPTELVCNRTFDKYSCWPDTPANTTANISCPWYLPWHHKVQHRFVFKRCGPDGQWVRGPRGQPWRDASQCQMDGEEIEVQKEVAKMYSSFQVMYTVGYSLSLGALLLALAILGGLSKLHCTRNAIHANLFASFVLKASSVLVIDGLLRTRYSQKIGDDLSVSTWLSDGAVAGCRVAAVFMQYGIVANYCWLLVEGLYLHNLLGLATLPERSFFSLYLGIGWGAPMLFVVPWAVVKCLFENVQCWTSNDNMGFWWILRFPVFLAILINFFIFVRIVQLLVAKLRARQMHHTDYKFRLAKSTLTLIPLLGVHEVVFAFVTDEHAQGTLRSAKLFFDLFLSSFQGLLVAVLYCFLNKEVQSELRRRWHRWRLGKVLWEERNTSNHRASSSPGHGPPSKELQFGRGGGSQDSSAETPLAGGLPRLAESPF
# Procedure: (§1) Peptide absorbance readings were obtained from UV Absorbance measurements at 280 nm on a Genesys 6 Spectrophotometer (Thermo Electron Corporation). Beer's Law was used to calculate solution concentrations based on the number of tryptophan and tyrosine residues in each analog. At the end of the incubation, 100 μL LucLite luminescence substrate reagent was added to each well, the plate sealed and shaken, and placed into a Wallac Trilux luminescence counter for cAMP detection.
# (§2) HEK293 cells were co-transfected with the GcgR or GLP-1R cDNAs and a luciferase reporter gene-linked to a cAMP response element (CRE). […] The plate was incubated for 10 min in the dark and light output was quantified on a MicroBeta1450 liquid scintillation counter (Perkin-Elmer, Wellesley, Mass.).
# [2] = target: T2, GLP-1 receptor (Homo sapiens, UniProt P43220); details: for % Relative activity at the Receptor for GLP-1: relative to the native hormone; for GLP-1 Receptor % relative activity: activity relative to the native hormone at the indicated receptor
# T2 sequence (P43220 24-463, species assumed): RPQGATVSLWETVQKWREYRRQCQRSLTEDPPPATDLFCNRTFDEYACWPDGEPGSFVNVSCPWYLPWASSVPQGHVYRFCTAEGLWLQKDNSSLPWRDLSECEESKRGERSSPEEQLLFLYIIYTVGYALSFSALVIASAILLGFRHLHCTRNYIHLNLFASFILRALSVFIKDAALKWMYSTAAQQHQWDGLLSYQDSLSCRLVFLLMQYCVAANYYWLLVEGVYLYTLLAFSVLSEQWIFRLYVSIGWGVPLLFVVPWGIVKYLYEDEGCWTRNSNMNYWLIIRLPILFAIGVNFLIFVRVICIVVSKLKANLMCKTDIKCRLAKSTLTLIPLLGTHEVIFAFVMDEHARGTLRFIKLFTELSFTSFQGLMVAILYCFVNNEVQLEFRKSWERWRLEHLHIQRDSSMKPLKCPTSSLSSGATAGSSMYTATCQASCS
# Procedure: as §1, §2
# [3] = target: T3, GIP receptor (Homo sapiens, UniProt P48546); assay: Functional assay-cAMP synthesis, luciferase reporter in HEK293 cells, GIP receptor; type: cell-based; details: for % Relative activity at the Receptor for GIP: relative to the native hormone; for GIP Receptor % relative activity: activity relative to the native hormone at the indicated receptor; for EC50: cAMP induction, in vitro, as in Example 14
# T3 construct: expressed in transfected cells; host or cells: HEK293
# T3 sequence (P48546 22-466): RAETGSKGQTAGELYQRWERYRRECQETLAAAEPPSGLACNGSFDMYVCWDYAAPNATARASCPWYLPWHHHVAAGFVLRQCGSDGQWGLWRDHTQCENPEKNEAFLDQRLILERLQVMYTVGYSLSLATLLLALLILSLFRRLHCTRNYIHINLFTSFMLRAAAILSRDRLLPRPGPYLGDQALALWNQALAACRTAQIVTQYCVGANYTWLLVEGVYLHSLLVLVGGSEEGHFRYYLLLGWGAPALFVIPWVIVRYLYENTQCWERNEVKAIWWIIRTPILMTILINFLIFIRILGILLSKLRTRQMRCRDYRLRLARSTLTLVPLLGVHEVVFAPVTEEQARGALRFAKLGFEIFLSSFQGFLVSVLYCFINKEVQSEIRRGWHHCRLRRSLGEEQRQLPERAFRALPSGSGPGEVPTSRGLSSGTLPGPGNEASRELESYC
# [4] = target: T2, GLP-1 receptor; assay: cell-based
# Procedure: as §1, §2
Molecule,% Relative activity at the Receptor for Glucagon ([1]; Table 35) [%],Glucagon Receptor % relative activity [1] [%],% Relative activity at the Receptor for GLP-1 ([2]; Table 35) [%],GLP-1 Receptor % relative activity [2] [%],% Relative activity at the Receptor for GIP ([3]; Table 35) [%],GIP Receptor % relative activity [3] [%],EC50 [1] [nM],EC50 [4] [nM],EC50 [3] [nM],agonist activity at the GIP receptor ([3]; text on Table 34),EC50 ([1]; read-out: Glucagon Receptor EC50) [nM],"EC50 ([2]; read-out: GLP-1 Receptor EC50, cAMP induction, in vitro, as in Example 14) [nM]",EC50 ([3]; read-out: GIP Receptor EC50) [nM],% Relative activity at the Receptor for Glucagon ([1]; Table 36) [%],% Relative activity at the Receptor for GLP-1 ([2]; Table 36) [%],% Relative activity at the Receptor for GIP ([3]; Table 36) [%]
CCCCCCCCCCCCCC(=O)NCCCC[C@H](NC(=O)[C@H](CO)NC(=O)[C@@H]1CCCN1C(=O)[C@@H]1CCCN1C(=O)[C@@H]1CCCN1C(=O)[C@H](C)NC(=O)CNC(=O)[C@H](CO)NC(=O)[C@H](CO)NC(=O)[C@@H]1CCCN1C(=O)CNC(=O)CNC(=O)[C@H](CC(N)=O)NC(=O)[C@H](CCSC)NC(=O)[C@H](CC(C)C)NC(=O)[C@H](Cc1c[nH]c2ccccc12)NC(=O)[C@H](CS)NC(=O)[C@@H](NC(=O)[C@H](Cc1ccccc1)NC(=O)[C@H](CCC(=O)O)NC(=O)[C@H](CCCCN)NC(=O)[C@H](C)NC(=O)[C@H](C)NC(=O)[C@H](CCC(N)=O)NC(=O)C(C)(C)NC(=O)[C@H](CC(=O)O)NC(=O)[C@H](CC(C)C)NC(=O)[C@H](Cc1ccc(O)cc1)NC(=O)[C@H](CCCCN)NC(=O)[C@H](CO)NC(=O)[C@H](Cc1ccc(O)cc1)NC(=O)[C@H](CC(=O)O)NC(=O)[C@H](CO)NC(=O)[C@@H](NC(=O)[C@H](Cc1ccccc1)NC(=O)[C@@H](NC(=O)CNC(=O)[C@H](CCC(N)=O)NC(=O)C(C)(C)NC(=O)[C@@H](N)Cc1c[nH]cn1)[C@@H](C)O)[C@@H](C)O)[C@@H](C)CC)C(N)=O [mt-347] (H-H[Aib]QGTFTSDYSKYLD[Aib]QAAKEFICWLMNGGPSSGAPPPSK(Myristoyl)-NH2; N-terminus assumed),111,111.36,67,67.07,0.7,0.70,,,,,,,,,,
CC[C@H](C)[C@H](NC(=O)[C@H](Cc1ccccc1)NC(=O)[C@H](CCC(=O)O)NC(=O)[C@H](CCCCN)NC(=O)[C@H](C)NC(=O)[C@H](C)NC(=O)[C@H](CCC(N)=O)NC(=O)[C@H](CCC(=O)O)NC(=O)[C@H](CC(=O)O)NC(=O)[C@H](CC(C)C)NC(=O)[C@H](Cc1ccc(O)cc1)NC(=O)[C@H](CCCCN)NC(=O)[C@H](CO)NC(=O)[C@H](Cc1ccc(O)cc1)NC(=O)[C@H](CC(=O)O)NC(=O)[C@H](CO)NC(=O)[C@@H](NC(=O)[C@H](Cc1ccccc1)NC(=O)[C@@H](NC(=O)CNC(=O)[C@H](CCC(N)=O)NC(=O)C(C)(C)NC(=O)[C@@H](N)Cc1c[nH]cn1)[C@@H](C)O)[C@@H](C)O)C(=O)N[C@@H](CS)C(=O)N[C@@H](Cc1c[nH]c2ccccc12)C(=O)N[C@@H](CC(C)C)C(=O)N[C@@H](CCSC)C(=O)N[C@@H](CC(N)=O)C(=O)NCC(=O)NCC(=O)N1CCC[C@H]1C(=O)N[C@@H](CO)C(=O)N[C@@H](CO)C(=O)NCC(=O)N[C@@H](C)C(=O)N1CCC[C@H]1C(=O)N1CCC[C@H]1C(=O)N1CCC[C@H]1C(=O)N[C@@H](CO)C(=O)N[C@@H](CCCCN)C(N)=O [mt-346],,3.70,,366.67,,0.34,0.954,0.0015,0.796,,,,,,,
CC[C@H](C)[C@H](NC(=O)[C@H](Cc1ccccc1)NC(=O)[C@H](CCC(=O)O)NC(=O)[C@H](CCCCN)NC(=O)[C@H](C)NC(=O)[C@H](C)NC(=O)[C@H](CCC(N)=O)NC(=O)C(C)(C)NC(=O)[C@H](CC(=O)O)NC(=O)[C@H](CC(C)C)NC(=O)[C@H](Cc1ccc(O)cc1)NC(=O)[C@H](CCCCN)NC(=O)[C@H](CO)NC(=O)[C@H](Cc1ccc(O)cc1)NC(=O)[C@H](CC(=O)O)NC(=O)[C@H](CO)NC(=O)[C@@H](NC(=O)[C@H](Cc1ccccc1)NC(=O)[C@@H](NC(=O)CNC(=O)[C@H](CCC(N)=O)NC(=O)C(C)(C)NC(=O)[C@@H](N)Cc1c[nH]cn1)[C@@H](C)O)[C@@H](C)O)C(=O)N[C@@H](CS)C(=O)N[C@@H](Cc1c[nH]c2ccccc12)C(=O)N[C@@H](CC(C)C)C(=O)N[C@@H](CCSC)C(=O)N[C@@H](CC(N)=O)C(=O)NCC(=O)NCC(=O)N1CCC[C@H]1C(=O)N[C@@H](CO)C(=O)N[C@@H](CO)C(=O)NCC(=O)N[C@@H](C)C(=O)N1CCC[C@H]1C(=O)N1CCC[C@H]1C(=O)N1CCC[C@H]1C(=O)N[C@@H](CO)C(=O)N[C@@H](CCCCN)C(N)=O [mt-348] (H-H[Aib]QGTFTSDYSKYLD[Aib]QAAKEFICWLMNGGPSSGAPPPSK-NH2),8.2,8.16,149,148.65,0.2,0.15,,0.0037,,,,,,,,
CCCCCCCCCCCCCCCC(=O)NCCCC[C@H](NC(=O)[C@H](CO)NC(=O)[C@@H]1CCCN1C(=O)[C@@H]1CCCN1C(=O)[C@@H]1CCCN1C(=O)[C@H](C)NC(=O)CNC(=O)[C@H](CO)NC(=O)[C@H](CO)NC(=O)[C@@H]1CCCN1C(=O)CNC(=O)CNC(=O)[C@H](CC(N)=O)NC(=O)[C@H](CCSC)NC(=O)[C@H](CC(C)C)NC(=O)[C@H](Cc1c[nH]c2ccccc12)NC(=O)[C@H](CC(N)=O)NC(=O)[C@@H](NC(=O)[C@H](Cc1ccccc1)NC(=O)[C@H](CCC(=O)O)NC(=O)[C@H](CCCCN)NC(=O)[C@H](C)NC(=O)[C@H](C)NC(=O)[C@H](CCC(N)=O)NC(=O)C(C)(C)NC(=O)[C@H](CC(=O)O)NC(=O)[C@H](CC(C)C)NC(=O)[C@H](Cc1ccc(O)cc1)NC(=O)[C@@H](NC(=O)[C@H](CO)NC(=O)[C@H](Cc1ccc(O)cc1)NC(=O)[C@H](CC(=O)O)NC(=O)[C@H](CO)NC(=O)[C@@H](NC(=O)[C@H](Cc1ccccc1)NC(=O)[C@@H](NC(=O)CNC(=O)[C@H](CCC(N)=O)NC(=O)C(C)(C)NC(=O)[C@@H](N)Cc1c[nH]cn1)[C@@H](C)O)[C@@H](C)O)[C@@H](C)CC)C(C)C)C(N)=O [mt-362] (H-H[Aib]QGTFTSDYSIYLD[Aib]QAAKEFVNWLMNGGPSSGAPPPSK(Palmitoyl)-NH2; N-terminus assumed),,83.17,,240.96,,3.95,0.0768,0.102,0.0782,exceptionally potent activity,,,,,,
"mt-349 (H[Aib]QGTFTSDYSKYLDEQAAKEFIC(PEG 40 kDa)WLMNGGPSSGAPPPSK(Myristoyl)-NH2; also: acylated with a C14 fatty acyl group, site not given here)",,3.82,,286.36,,0.18,,,,,0.549,0.0022,1.99,,,
CCCCCCCCCCCCCCCC(=O)NCCCC[C@H](NC(=O)[C@H](CO)NC(=O)[C@@H]1CCCN1C(=O)[C@@H]1CCCN1C(=O)[C@@H]1CCCN1C(=O)[C@H](C)NC(=O)CNC(=O)[C@H](CO)NC(=O)[C@H](CO)NC(=O)[C@@H]1CCCN1C(=O)CNC(=O)CNC(=O)[C@H](C)NC(=O)[C@H](CC(C)C)NC(=O)[C@H](CC(C)C)NC(=O)[C@H](Cc1c[nH]c2ccccc12)NC(=O)[C@H](CC(N)=O)NC(=O)[C@@H](NC(=O)[C@H](Cc1ccccc1)NC(=O)[C@H](CCC(=O)O)NC(=O)C(C)(C)NC(=O)[C@H](C)NC(=O)[C@H](C)NC(=O)[C@H](CCC(N)=O)NC(=O)[C@H](CCCCN)NC(=O)[C@H](CC(=O)O)NC(=O)[C@H](CC(C)C)NC(=O)[C@H](Cc1ccc(O)cc1)NC(=O)[C@@H](NC(=O)[C@H](CO)NC(=O)[C@H](Cc1ccc(O)cc1)NC(=O)[C@H](CC(=O)O)NC(=O)[C@H](CO)NC(=O)[C@@H](NC(=O)[C@H](Cc1ccccc1)NC(=O)[C@@H](NC(=O)CNC(=O)[C@H](CCC(N)=O)NC(=O)C(C)(C)NC(=O)[C@@H](N)Cc1ccc(O)cc1)[C@@H](C)O)[C@@H](C)CC)[C@@H](C)CC)C(C)C)C(N)=O [mt-358] (H-Y[Aib]QGTFISDYSIYLDKQAA[Aib]EFVNWLLAGGPSSGAPPPSK(Palmitoyl)-NH2),,,,,,,,,,,,,,710.29,11.89,313.61
